We go through nine compounds from PMC7842926, “Synergistic effect and ultrastructural changes in Trypanosoma cruzi caused by isoobtusilactone A in short exposure of time” (PLoS ONE, 2021).

A short description of one data set: Cytotoxicity assay (MTT). The class given is cell-based. The following applies: African green monkey (Cercopithecus aethiops), Vero cells (CCL-81); for CC50 at 4 h: 4 h of treatment, read-out: Vero cells (CCL-81) CC50 - 4h (CI); for CC50 at 24 h: 24 hours of treatment, confidence interval in brackets, read-out: Vero cells (CCL-81) CC50 (CI). The method, then:
Vero cells (CCL-81) isolated from the kidney of the African green monkey Cercopithecus aethiops were purchased from ATCC® (Washington DC, USA). The cells were inoculated in 200 μL of Dulbecco’s modified Eagle (DMEM) medium in 96-well plates at a concentration of 2 × 10^4 cells/well and incubated at 37°C for 24 h for adherence of the cells. Six different concentrations of the compounds (12 to 900 μM for butanolides, and 200 to 1,600 μM for benznidazole) were added to the wells. After 4 or 24 h of treatment, the cells were washed and cell viability was assessed using MTT (3-(4,5-Dimethylthiazol-2-yl)-2,5-Diphenyltetrazolium Bromide) assay (2 mg/mL). After 4 h of incubation at 37°C in a CO2 atmosphere, the wells were washed and 100% DMSO was added to solubilize the formazan crystals. The absorbance was measured at 570 nm using an ELISA plate reader (Biotek Model EL-800, VT, USA). DMSO (1%) treatment served as negative control and benznidazole treatment served as positive control.
(§1) The 50% cytotoxic concentration (CC50), x % inhibitory concentration (ICx = IC25, IC50, IC75, or IC90), and 50% lethal concentration (LC50) values were obtained from the percentage of inhibition/death versus log concentration of each compound, by nonlinear regression with variable slope and automatic withdrawal of outliers with ROUT coefficient (Q = 5). […] Graphpad Prism software version 7.04 was used for all regressions.

Data set [1] relates to epimastigote forms of Y strain (TcII). The experiment in a line: Epimastigote cell viability assay (MTS/PMS), Y strain. The class given is cell-based, Trypanosoma cruzi. Particulars: Trypanosoma cruzi; 4 h of treatment; read-out: IC50 epimastigotes strain Y. The method, then:
(§2) Epimastigote forms of three strains of T. cruzi, including Dm28c (TcI), CL Brener (TcVI), and Y strain (TcII), were maintained in liver infusion tryptose (LIT) medium supplemented with 10% fetal bovine serum at 28°C [16] were kindly provided by Oswaldo Cruz Institute/Fiocruz. For the experiments, exponential phase cultures were used. All assays were performed in triplicates in 96-well plates.
(§3) The absorbance of the formazan was measured at 490 nm using a microplate reader (Asys Expert Plus -Biochrom). In parallel, we determined the effect of 1% DMSO (negative control) and benznidazole (positive control) on the viability of epimastigotes and a replicate of each treatment was performed by fixing the epimastigotes with 4% paraformaldehyde prior to the addition of MTS/PMS (basal absorbance control).
as §1

In data set [2] the test system is amastigotes of T. cruzi (Dm28c). The experiment in a line: Antiproliferative assay on intracellular amastigotes in Vero host cells. The data set is classed as cell-based, Trypanosoma cruzi. Particulars: for IC50: Trypanosoma cruzi, Vero, 24 hours of treatment, confidence interval in brackets, read-out: Amastigotes (Dm28c) IC50 (CI); for SI (selectivity index): Vero CC50 versus amastigote IC50, 24 hours. The procedure: To determine the antiproliferative effect of butanolides on intracellular amastigote forms (Dm28c), Vero cells were used as host cells. Vero cells were cultured in DMEM and maintained in a CO2 atmosphere at 37°C.
After 4 h of incubation for adherence and infection, the cells were washed with 1x phosphate buffered saline (PBS) and then incubated in DMEM for 20 h to allow differentiation of internalized trypomastigotes into amastigotes.
Vero cells infected with amastigotes were incubated for 4 or 24 h with the compounds (4 concentrations within the range 4–200 μM) in DMEM. After incubation, the cells were washed, fixed in methanol, stained with 4',6-Diamidino-2-phenylindole (DAPI), and photographed using Leica DMI 6000-B fluorescence microscope. The photos obtained were analyzed using the software ImageJ version 1.5 for quantification of total Vero cells and determination of the percentage of infected cells and number of amastigotes per cell. The 50% inhibitory concentration (IC50) was calculated using the infectivity index (II) described by Ceole et al.. DMSO (1%) treatment served as negative control and benznidazole treatment served as positive control.
as §1

Data set [3] relates to epimastigotes of T. cruzi (Dm28c, TcI). Description: Epimastigote cell viability assay (MTS/PMS), Dm28c. The class given is cell-based, Trypanosoma cruzi. Particulars: for IC50: Trypanosoma cruzi, read-out: Epimastigotes (Dm28c) IC50 - 4h (CI); for activity at concentrations below 50 μg/mL in epimastigotes: 72 h of treatment, Dm28c. The method, then: as §2
The effect of the isolated compounds on the viability of epimastigote forms of Dm28c strain was determined by MTS [3-(4,5-dimethylthiazol-2-yl)-5-(3-carboxymethoxyphenyl)-2-(4-sulfophenyl)-2H-tetrazolium bromide] with PMS (5-methyl-phenazinium methyl sulfate) colorimetric assay, as described by Nunes et al.. […]
as §3, §1

Data set [4] concerns epimastigote forms of CL Brener (TcVI). The experiment in a line: Epimastigote cell viability assay (MTS/PMS), CL Brener. The data set is classed as cell-based, Trypanosoma cruzi. Particulars: Trypanosoma cruzi; 4 h of treatment; read-out: IC50 epimastigotes strain CL Brener. The procedure: as §2, §3, §1
The test system of data set [5] is trypomastigotes. Particulars: period of treatment 24 h; read-out: IC50 against trypomastigotes; cited from earlier work.
A further data set relates to amastigote forms. Particulars: longer treatment periods; read-out: activity against amastigote forms; cited from earlier work.
Another data set deals with T. cruzi. The following applies: cited from earlier work.
In data set [6] the test system is epimastigotes of T. cruzi (Dm28c, TcI). On the set-up: method as in PMID 32327956. The following applies: 24 h of treatment; read-out: IC50 epimastigote forms of Dm28c strain; cited from earlier work.
In data set [7] the test system is trypomastigote forms of the parasite (Dm28c). The experiment in a line: microbe, parasite or virus in culture. The data set is classed as cell-based. The method, then: Cell-derived trypomastigotes (Dm28c) were obtained from the supernatant of infected Vero cell cultures. Vero cells (9 × 10^5 cells/mL) and trypomastigotes were seeded at a ratio of 1:10 into culture bottles (75 cm^2) containing DMEM. After 4 h of incubation, the bottles were washed to remove unadhered trypomastigotes and incubated for another 96 h under CO2 atmosphere at 37°C. After 96 h of incubation, new trypomastigote forms were collected from the supernatant and used to perform the assays.
The lysis assay was performed in 96-well plates in technical triplicates (4 concentrations within the range 4–250 μM for butanolides and 200–1,600 μM for benznidazole), and the trypomastigotes (1 x 10^6 parasites/well) were incubated in 200 μL of DMEM (supplemented with 10% FBS, 100 μg/mL streptomycin, and 100 IU/mL penicillin) with the compounds at 37°C for 4 h. The test, negative control (1% DMSO), and positive control (benznidazole) parasites were fixed and counted in Neubauer's chamber.
as §1

For data set [8], the system named is trypomastigotes. Particulars: concentration greater than 40 μM, exposure time of 18 hours; cited from earlier work.
The mark [9] stands for this setting: 4 h of treatment, Na = not active.

A word on the CC50: it is the concentration at which the toxic effect on the cells reaches its halfway point. One may read the LC50 as the concentration that kills 50% of the test population.

Like-named read-outs stand apart in the source and are kept apart here. Where a SMILES comes first, the peptide text is derived from it. The star is where a group is joined. Cbz = O=C(OCc1ccccc1)* Some results are limits rather than exact numbers.

For `O=C(Cn1ccnc1[N+](=O)[O-])NCc1ccccc1` [Benznidazole, benznidazole, reference compound], the CC50 at 4 h in the data set “Cytotoxicity assay (MTT)” was over 1600 µM. Further, in the data set “Cytotoxicity assay (MTT)”, the CC50 at 24 h was 1140 µM. Besides, the IC50 in [1] was over 1600 µM; in [2] it was 6.57 µM; in [3] (setting [9]) it was over 1600 µM; in data set [4], over 1600 µM. The “SI (selectivity index)” value in data set [2] came to 174.
`C=C1OC(=O)/C(=C\CCCCCCCCCCCCCCC)[C@H]1O` [isolinderanolide E]: the figures for the IC50 with trypomastigotes [5] and in the data set on amastigote forms were 29.9 µM and 10.1 µM, respectively.
On to `CC(C)=CCCC(C)=CC=O` (mixture of isomers) [Citral], for which the inhibition of metacyclogenesis with T. cruzi (30 μg/mL) was 54%.
As for `CCCCCCCCCCCCC/C=C1\C(=O)O[C@@H](C)[C@H]1O` [Epilitsenolide C1, epilitsenolide C1], in data set [6], the IC50 was 7.77 µM. For the same compound, the “Epimastigotes (Dm28c) IC50 - 4h (CI)” value in [3] (setting [9]) is on record as “did not show activity”. Besides, in data set [3], the “activity at concentrations below 50 μg/mL in epimastigotes” value is reported as “exhibited activity”.
As to `CCCCCCCCCCCCCCC/C=C(/C(=O)OC)[C@H](O)C(C)=O` [secosubamolide A], the figures for the IC50 in the data set on trypomastigotes [5] and in the data set on amastigote forms were 12.5 µM and 12.3 µM, respectively.
Take `CCCCCCCCCCCCC/C=C1\CC(CO)OC1=O` (stereo not shown) [Majoranolide, majoranolide]: the CC50 at 4 h in the data set “Cytotoxicity assay (MTT)” is 558 µM. Further, the CC50 at 24 h in “Cytotoxicity assay (MTT)” is 166 µM. For the same compound, the IC50 in data set [2] was 21.9 µM; in data set [3] (setting [9]), over 250 µM. For the same compound, the “SI (selectivity index)” value in data set [2] is 7.57; in data set [7] (trypomastigotes Dm28c, 4 h, Vero cells), 7.77; in [3] (Vero CC50 4 h versus epimastigote Dm28c IC50 4 h), 0.94. Besides, the LC50 in [7] (Trypanosoma cruzi, 4 h of treatment, read-out: LC50 against trypomastigote forms (Dm28c)) worked out at 71.7 µM. Besides, in [3], the “activity at concentrations below 50 μg/mL in epimastigotes” value is recorded as “exhibited activity”.
`CC(C)[C@H](NC(=O)OCc1ccccc1)C(=O)N[C@H](C=O)Cc1ccccc1` [MDL28170] (Cbz-Val-Phe-aldehyde): the inhibition of differentiation in the data set on T. cruzi (50 μM, 96-hour treatment) is on record as about 50%.
For the compound `Oc1ccc(/C=C/c2cc(O)cc(O)c2)cc1` [resveratrol], the reduction of infection result in the data set on trypomastigotes [8] is recorded as “by half”.
isolinderanolide D: the values for the IC50 with trypomastigotes [5] and with amastigote forms were 12.9 µM and 25.3 µM, respectively.
